Where no end group is shown, it is not given here.

The results in this text go back to patent publication US20150086618A1, “PHOSPHOLIPID MICELLAR AND LIPOSOMAL COMPOSITIONS AND USES THEREOF” (THE BOARD OF TRUSTEES OF THE UNIVERSITY OF ILLINOIS, priority 2008, published 2015).

Series [1] relates to TREM-1 promoter-driven luciferase gene. Description: TREM1-luciferase reporter assay in RAW 264.7 macrophages stimulated with P. aeruginosa PA103. In kind it is cell-based, mouse. The settings on record: RAW 264.7 cells pre-treated 18 hr, then PA103 24 hr; compared to saline-treated PA103-stimulated cells. The source says:
Murine macrophages (RAW 264.7 cells) were transfected with a pro-inflammatory mediator ‘triggering receptor expressed on myeloid cells’ (TREM-1) promoter-driven luciferase gene. TREM-1 is an immunoglobulin superfamily (IgSF) molecule that amplifies inflammation and is a crucial mediator of septic shock (Bouchon et al., Nature 410: 1103-1107, 2001). The macrophages were pre-treated for 18 hr with the following treatments: (i) saline, (ii) SSM, (iii) sub-micellar concentration of lipid (lipid), (iv) GLP-SSM (GM), or (v) VIP-SSM (VM), in the presence or absence of Exendin(9-39) or (VIP(6-28). To allow for the presence of excess antagonist to compete with its respective peptide agonist for receptor binding, the concentration of each receptor antagonist used (10 μM) was 10 times greater than its peptide agonist (1 μM). Inflammation of cells was induced by the addition of the Gram-negative bacteria Pseudomonas aeruginosa (P. aeruginosa strain PA103) for an additional 24 hr, and luciferase activities were measured (see FIG. 1).
The preparation of samples was carried out as follows: The SSM stock solution (1.59 mM) was prepared by weighing approximately 2.23 mg of DSPE-PEG2000 into a round bottom flask (RBF). Saline (˜0.5 ml) was added to achieve a concentration of 1.59 mM. […]
TREM1 expression levels were determined as set out below. […]
In general terms: Reporter assays use an easily measured gene product as a stand-in for the process of interest.

The test system of the next series is NF-κB. Put plainly: NF-κB-driven luciferase reporter assay in bone marrow-derived macrophages (BMDM) with LPS. Conditions: 24 h. It is filed as cell-based, mice. From the text: Bone marrow-derived macrophages (BMDM) from a primary macrophage cell line, extracted from mice transfected with a nuclear factor-kappa B (NF-κB)-driven luciferase reporter plasmid, were used in these experiments. In this cell line, the expression of NF-κB (a proinflammatory mediator) induces the expression of a luciferase gene in a concentration-dependent manner. Therefore, the expression level of NF-κB in BMDM can be quantified indirectly by the magnitude of luminescence produced [relative luminescence units (RLU)] via a luciferase assay. BMDM were subjected to treatment with either saline, saline+LPS, SSM, SSM+LPS, GLP, GLP+LPS, GLP-SSM (GM), GM+LPS, VIP, VIP+LPS, VIP-SSM (VM), and VM+LPS. The resulting inflammatory responses induced by the different agents was then quantified via a luciferase assay to determine the expression level of NF-κB.
Test reagents for use in the experiments were prepared using the following protocols as set out in detail below. SSM stock solution (1.56 mM): Weigh approximately 2.2 mg of DSPE-PEG2000 into a round bottom flask (RBF). Add the required volume of saline (˜0.5 ml) to achieve a concentration of 1.56 mM. Vortex the mixture for 2 minutes at maximum speed. Flush the solution with argon and equilibrate in the dark at 25° C. for at least 1 hour. […] Dissolve in the required volume of saline (˜30 μl) to form stock solution (173.3 μM). Test samples and controls were prepared as set out in Table 2, and samples and control were incubated at 25° C. for 2 h in the dark. VIP stock solution (176.67 μM≡587.57 μg/ml): Weigh approximately 12 μg of VIP peptide. Saline (˜20 μl) was added to form the stock solution (176.67 μM). LPS stock solution (LPS is weighed from lyophilized powder and dissolved in PBS; each well contains 1 μg/ml).
Preparation of cells for test: Extracted bone marrow cells were grown for 7 days in liquid culture medium (LCM) containing full medium. Old medium was removed and fresh medium (10-20 ml) was added. Cells were dislodged by scraping using a cell scraper, and the cells were counted. The concentration of cells was adjusted with medium to the test concentration of 10^5 cells/ml. Cells (10^5) (˜1 ml) were plated into each well of a 12-well plate. This procedure was repeated until 16 wells were plated with cells. Cells were incubated for 24 h at 37° C., 5% CO2. This allowed cells to adhere to the culture plate. After 24 h, medium was removed and replaced with serum-starved medium (with 2% FBS, phenol red containing DMEM and Pen/Strep (P/S)). Cells were incubated at 37° C., 5% CO2.
Determination of NF-κB expression level: Before addition of sample/control, the media was removed from each well; washed with PBS and 0.5 ml of serum free media (DMEM with no phenol red, FCS or antibiotics) was added into each well. Cells were treated as set out in Table 3 below. Cells were then incubated for 24 h at 37° C. The culture media was collected from each well. Remaining cells were washed twice with PBS; 100 μl of cell lysis buffer (luciferase kit) was added; cells were dislodged with a cell scraper and collected in centrifuge tubes. All samples were stored at −80° C. if not used immediately. The expression level of NF-kappa B (relative luminescence units (RLU)) in the cell lysate from each well was measured using a luciferase assay (Cat#1500, Promega). The protein content of each sample was measured using a Bradford protein assay to normalize results from the luciferase assay. The results are set out in Table 3 below and in FIG. 2.

A short description of series [2]: α-helicity of LP17 and control peptide in saline and SSM. It is filed as physicochemical. The settings on record: peptide 20 μM, SSM 5 mM. The protocol:
The α-helicity of LP17 (20 μM) in saline and in SSM (5 mM) was tested. A control peptide ([…] (SEQ ID NO:2)) was also tested in saline and in SSM at the same concentrations.

Exendin (9-39): in series [1], the “luciferase activity (expression level of TREM 1)” value is recorded as “absence of anti-inflammatory effect”.
Consider “VIP(6-28): VIP receptor antagonist (FTDNYTRLRKQMAVKKYLNSILN; ends and bridges not checked; UniProt P01282 130-152, looked up, fragment)”, for which, in series [1], the “luciferase activity (expression level of TREM 1)” value was “absence of anti-inflammatory effect”.
For the substance “vasoactive intestinal peptide (HSDAVFTDNYTRLRKQMAVKKYLNSILN; ends and bridges not checked; UniProt P01282 125-152, looked up) [VIP, peptide hormone containing 28 amino acid residues, free peptide in saline]”, in the series with NF-κB (+ LPS (1 μg/ml)), the “Relative Luminescence Units (RLU) Normalized to Protein Concentration, Ave.” value is 311.39 RLU; the “Relative Luminescence Units (RLU) Normalized to Protein Concentration, Trial 1” value amounted to 329.26 RLU; the “Relative Luminescence Units (RLU) Normalized to Protein Concentration, Trial 2” value is reported as 342.42 RLU; the “Relative Luminescence Units (RLU) Normalized to Protein Concentration, Trial 3” value is given as 306.81 RLU. Moreover, the “Relative Luminescence Units (RLU) Normalized to Protein Concentration, Trial 4” value in the series on NF-κB (+ LPS (1 μg/ml)) came to 267.10 RLU. In addition, in the series with NF-κB (control without LPS), the “Relative Luminescence Units (RLU) Normalized to Protein Concentration, Ave.” value amounted to 73.70 RLU; the “Relative Luminescence Units (RLU) Normalized to Protein Concentration, Trial 1” value stood at 57.78 RLU; the “Relative Luminescence Units (RLU) Normalized to Protein Concentration, Trial 2” value is given as 90.09 RLU; the “Relative Luminescence Units (RLU) Normalized to Protein Concentration, Trial 3” value was found to be 60.50 RLU. In addition, the “Relative Luminescence Units (RLU) Normalized to Protein Concentration, Trial 4” value in the series with NF-κB (control without LPS) is given as 86.45 RLU.
On to “TDSRCVIGLYHPPLQVY (SEQ ID NO:2) (listed as Mus musculus) [control peptide, control peptide for LP17]”, for which the “percent α-helicity in SSM compared to saline” value in series [2] is “No significant difference”.
